Results as given in patent publication US10912780B2, “Heterocyclic compounds useful as anti-bacterial agents and method for production thereof” (Bugworks Research, Inc., priority 2017, dated 2021).
Converted amounts (≈) assume the structure as drawn. “And” between values parts separate entries of the source, which are not always exact repeats. Identical values can stand only once.

Experiments:
[1] = tested on: Pseudomonas aeruginosa ATCC 27853; assay: Minimum Inhibitory Concentration (MIC) in LB media; type: cell-based; details: Pseudomonas aeruginosa, ATCC27853, read-out: Minimum Inhibitory Concentration P. aeruginosa ATCC 27853
Description: (§1) The compounds of Formula (I) are of interest due to their potent antibacterial effects. The ability of the invention compounds disclosed herein to achieve an antibacterial effect may be evaluated with regard to their ability to inhibit the growth of bacterial species like Escherichia coli ATCC 25922, Staphylococcus aureus ATCC 29213, Klebsiella pneumoniae ATCC 13883, Acinetobacter baumannii ATCC 19606, Pseudomonas aeruginosa ATCC 27853, Enterococcus faecalis ATCC 29212 and Enterococcus faecalis ATCC 29212 using an assay based on the following Minimum Inhibitory Concentration (MIC) protocol:
(§2) The medium sterility is checked by incubating at 37° C. for a period of 48 h.
(§3) Bacterial cultures that are stored as glycerol stocks at −80° C. are sub cultured on LB agar plates to obtain isolated colonies. A single colony of each strain is cultured in LB broth. The cultures are incubated at 37 C, 200 rpm till they reach an optical density (OD at 600 nm) of 0.8 to 1. […] Test compounds are dissolved in dimethyl sulfoxide (DMSO) to a stock concentration of 4 mg/ml. A twofold dilution series of this DMSO stock is prepared in a 96 well V bottom microtitre plate from rows A to H. A 3 μL volume of these dilutions are transferred to a 96-well flat bottom microtitre assay plate. Controls to monitor the effects of DMSO and media sterility are included. Each well is inoculated with 150 μL of the above diluted culture. The plates are incubated at 37° C. overnight in a humidified incubator. The following morning, the plates are read using a Spectrophotometer at 600 nm wavelength. […] The antibacterial activity (MIC) determined against representative Gram positive (S. aureus, E. faecalis) and Gram negative (E.coli, -P. aeruginosa and A. baumannii) pathogen were reported Table 1.

[2] = tested on: Enterococcus faecalis ATCC 29212; assay: Minimum Inhibitory Concentration (MIC) in LB media; type: cell-based; details: Enterococcus faecalis, ATCC29212, read-out: Minimum Inhibitory Concentration E. faecalis ATCC 29212
Description: as §1, §2, §3

[3] = tested on: Staphylococcus aureus ATCC 29213; assay: Minimum Inhibitory Concentration (MIC) in LB media; type: cell-based; details: Staphylococcus aureus, ATCC29213, read-out: Minimum Inhibitory Concentration S. aureus ATCC 29213
Description: as §1, §2, §3

[4] = tested on: Escherichia coli ATCC 25922; assay: Minimum Inhibitory Concentration (MIC) in LB media; type: cell-based; details: Escherichia coli, ATCC25922, read-out: Minimum Inhibitory Concentration E. coli ATCC 25922
Description: as §1, §2, §3

[5] = tested on: Klebsiella pneumoniae ATCC 13883; assay: Minimum Inhibitory Concentration (MIC) in LB media; type: cell-based; details: Klebsiella pneumoniae, ATCC13883, read-out: Minimum Inhibitory Concentration K. pneumoniae ATCC 13883
Description: as §1, §2, §3

[6] = tested on: K. pneumoniae [ATCC13883]; assay: Neutropenic thigh infection model in rat; type: in vivo; details: 10 mg/kg, i.v. bolus, neutropenic rat
[7] = tested on: P. aeruginosa [ATCC27853]; assay: Neutropenic lung infection model in rat; type: in vivo; details: 30 mg/kg, i.v. bolus, neutropenic rat, 24 h post infection
Method: The purpose of this study was to evaluate the efficacy of example 15 against P. aeruginosa [ATCC27853], following single dose intravenous infusion doses of 10, 30 and 100 mg/kg in a neutropenic lung infection model in rats
Prior to the start of the infection process, all animals were divided into different groups. All grouped cages of animals were carried to a procedure room, close to a biological safety cabinet. All infections were conducted in a biological safety cabinet, with appropriate personnel protection. Animals were placed into an induction chamber and anaesthesia was induced by exposing the animals to 3-5% Isoflurane in an oxygen flow set at approximately (˜) 1 liter per minute (LPM). Once the animals were in a sufficiently deep plane of anaesthesia as monitored by pedal reflex, they were removed and infected (2). […] A gentle mixing of inoculum between two animals was followed for uniform distribution.
The IV formulation vehicle used for example 15 was 10% of L-ascorbic acid in fresh MilliQ water (w/v) with pH adjusted to ˜4.0 with 1N Sodium hydroxide solution (w/v), and the dose volume was 10 mL/kg. Meropenem was formulated in saline. […] The dose levels of the test Example 15 were 10, 30 and 100 mg/kg.
All the animals in groups were sacrificed at 24 h post infection, as specified in experimental design, by an overdose of CO2 in an appropriate exposure chamber. The group 1 animals were sacrificed at 4 hrs post infection. The euthanized animals were dipped into 70% ethanol for surface decontamination. Entire Lung was aseptically isolated, weighed and placed into 1 mL of sterile CSDB broth, and homogenized (Omni Tip (220 V hand held)). Serial ten-fold dilutions of the lungs homogenates were prepared in sterile CSD broth and 0.05 mL of four dilutions for each tissue was plated onto CSDA agar plates. Bacterial colonies were enumerated following overnight incubation at 37° C. Bacterial densities were estimated as Log10 CFU/g lung. The Mean±SD Log10 CFU/g lung was estimated in each group. Significant differences between group means and control were analyzed by one way ANOVA, followed by a Dunnett's multiple comparison test, using Graphpad Prism at 95% confidence levels.

[8] = tested on: P. aeruginosa clinical strains; assay: Antibacterial susceptibility studies (MIC50 and MIC90) with clinical strains, CLSI guidelines; type: cell-based
[9] = tested on: E. cloacae clinical strains; assay: as above; type: cell-based
E. coli [ATCC25922] = assay: Urinary tract infection (UTI) rat model; type: in vivo; details: 30 mg/kg, i.v. bolus, rat UTI, 24 h post infection
Method: The purpose of this study is to assess the efficacy of Example 15 against E. coli [ATCC25922] following single dose intravenous infusion doses of 3, 10 and 30 mg/kg in a Urinary Tract Infection Rat Model
Prior to the start of the infection process all animals were divided into different groups. All grouped cages of animals were carried to a procedure room, close to a biological safety cabinet. All infections were conducted in a biological safety cabinet, with appropriate personnel protection. Animals were anaesthetized by intraperitoneal injection of ketamine & xylazine (60+10 mg/kg i.p.) cocktail. Once the animals were in a sufficiently deep plane of anaesthesia as monitored by pedal reflex, the abdominal wall of each rat was shaved with electric clippers and the skin was cleansed with 10% povidine iodine. After a 1.5 to 2 cm lower abdominal wall incision, the abdominal wall muscles were separated with blunt dissection. […] After the replacement of the bladder to its original location, the abdominal muscles were approximated using suture and the skin was closed. The wounds were cleansed using 10% povidine iodine.
The IV formulation vehicle used was 10% of L-ascorbic acid in fresh MilliQ water (w/v) with pH adjusted to 4.0 with 1N Sodium hydroxide solution (w/v), and the dose volume was 10 mL/kg. Meropenem was prepared in MilliQ water and the pH of solution was adjusted to 4.5 using HCl. Four hours post infection, animals were dosed intravenously, as single doses (for test compounds), as a constant rate infusion, under Ketamine 60 mg/kg IP+Xylazine 10 mg/kg IP anesthesia, at a dose volume of 10 ml/kg, at the rate of 0.03 ml/min. The dose levels of the test compounds were 3, 10 and 30 mg/kg. Meropenem was administered as a single bolus dose at a dose volume of 5 ml/kg. All the animals were sacrificed at 24 h post infection, as specified in experimental design, by an overdose of CO2 in an appropriate exposure chamber. The group 1 animals were sacrificed at 4 h post infection.
The euthanized animals were dipped into 70% ethanol for surface decontamination. The organs were removed aseptically; the bladder was cut away near the urethra, and the kidneys were removed by blunt dissection to avoid bleeding. The bladder and each kidney separately were be homogenized in PBS. The CFU per milliliter homogenate of bladder, & kidney were determined after 18 to 24 h of incubation at 37° C.

[10] = tested on: K. pneumoniae clinical strains; assay: Antibacterial susceptibility studies (MIC50 and MIC90) with clinical strains, CLSI guidelines; type: cell-based
[11] = tested on: A. baumannii clinical strains; assay: as above; type: cell-based
E. coli clinical strains = assay: as above; type: cell-based
[12] = Enterobacter cloacae, E. cloacae clinical strains (88 strains)

`O=C(O)c1cn(C2CC2)c2cc(N3CCNCC3)c(F)cc2c1=O` [Ciprofloxacin, reference compound] showed an MIC [1] of 0.1 µg/mL (≈ 0.302 µM), an MIC [2] of 0.4 µg/mL (≈ 1.21 µM) and an MIC [3] of 0.4 µg/mL (≈ 1.21 µM). For the same compound, the MIC [4] was 0.012 µg/mL (≈ 0.0362 µM), the MIC [5] was 0.05 µg/mL (≈ 0.151 µM) and the “MEAN ± SD (Log 10 CFU/g thigh)” value ([6]; 10 hr post infection) was 3.28 ± 0.19 Log 10 CFU/g thigh. The “Mean Log10CFU/g thigh reduction (wrt 2 h PI control: 4.72 Log10CFU/g thigh)” value ([6]; 10 hr post infection) was 1.44 Log10CFU/g thigh and the “Log 10 CFU/g thigh” value ([6]; individual animals, thigh harvested 10 hr post infection) was 3.49 Log 10 CFU/g thigh and 3.11 Log 10 CFU/g thigh and 3.25 Log 10 CFU/g thigh.

`C[C@@H](O)[C@H]1C(=O)N2C(C(=O)O)=C(S[C@@H]3CN[C@H](C(=O)N(C)C)C3)[C@H](C)[C@H]12` [Meropenem, reference compound] was tested, and the “MEAN ± SD (Log 10 CFU/g Lung)” value [7] was 5.04 ± 0.14 Log 10 CFU/g Lung, the “Mean Log 10CFU/g lung reduction (wrt 4 h PI control 5.78 Log10CFU/g lung)” value [7] was 0.74 Log10CFU/g lung and the “Log 10 CFU/g Lung” value ([7]; individual animals) was 5.03 Log 10 CFU/g Lung and 5.18 Log 10 CFU/g Lung and 4.90 Log 10 CFU/g Lung. For the same compound, the MIC ATCC27853 ([8]; P. aeruginosa reference strain ATCC27853, no unit in this line) was 0.5 µg/mL (≈ 1.3 µM), the MIC50 ([8]; Pseudomonas aeruginosa) was 2 µg/mL (≈ 5.22 µM) and the MIC90 ([8]; Pseudomonas aeruginosa) was 8 µg/mL (≈ 20.9 µM). For the same compound, the Minimum ([8]; lowest MIC among P. aeruginosa clinical strains (215 strains; Example 15: 176), no unit in this line) was 0.03, the MIC50 [9, 12] was 0.25 µg/mL (≈ 0.652 µM) and the MIC90 [9, 12] was 16 µg/mL (≈ 41.7 µM). For the same compound, the Minimum ([9]; lowest MIC among E. cloacae clinical strains (88 strains), no unit in this line) was 0.06, the “MEAN ± SD (Log10 CFU/g kidneys)” value (E. coli [ATCC25922]) was 4.41 ± 0.70 Log10 CFU/g kidneys and the “Mean Log10 CFU/g kidney reduction (wrt 4 h PI control: 6.03 Log10 CFU/g kidneys)” value (E. coli [ATCC25922]) was 1.62 Log10 CFU/g kidneys. For the same compound, the “MEAN ± SD (Log 10 CFU/ml Bladder)” value (E. coli [ATCC25922]; bladder) was 4.34 ± 0.32 Log 10 CFU/ml, the “Mean Log10 CFU/ml Bladder reduction (wrt 4 h PI control: 6.49 CFU/ml Bladder)” value (E. coli [ATCC25922]; bladder) was 2.15 Log10 CFU/ml and the “Log10 CFU/g (Left Kidney)” value (E. coli [ATCC25922]; individual animals) was 4.62 Log10 CFU/g and 4.41 Log10 CFU/g and 5.19 Log10 CFU/g. For the same compound, the “Log10 CFU/g (Right Kidney)” value (E. coli [ATCC25922]; individual animals) was 4.83 Log10 CFU/g and 3.13 Log10 CFU/g and 4.28 Log10 CFU/g, the “Log 10 CFU/ml Bladder” value (E. coli [ATCC25922]; individual animals, bladder) was 4.43 Log 10 CFU/ml and 4.62 Log 10 CFU/ml and 3.99 Log 10 CFU/ml and the MIC ATCC13883 ([10]; K. pneumoniae reference strain ATCC13883, no unit in this line) was 0.06 µg/mL (≈ 0.156 µM). The MIC50 ([10]; Klebsiella pneumoniae) was 1 µg/mL (≈ 2.61 µM), the MIC90 ([10]; Klebsiella pneumoniae) was 16 µg/mL (≈ 41.7 µM) and the Minimum ([10]; lowest MIC among K. pneumoniae clinical strains (211 strains; Example 15: 176), no unit in this line) was 0.03. The MIC ATCC19606 ([11]; A. baumannii reference strain ATCC19606, no unit in this line) was 0.5 µg/mL (≈ 1.3 µM), the MIC50 ([11]; Acinetobacter baumannii) was 8 µg/mL (≈ 20.9 µM) and the MIC90 ([11]; Acinetobacter baumannii) was 32 µg/mL (≈ 83.4 µM). For the same compound, the Minimum ([11]; lowest MIC among A. baumannii clinical strains (169 strains; Example 15: 132), no unit in this line) was 0.03125, the MIC ATCC25922 (E. coli clinical strains; E. coli reference strain ATCC25922, no unit in this line (MIC50/MIC90 lines: μg/ml)) was 0.06 µg/mL (≈ 0.156 µM) and the MIC50 (E. coli clinical strains; Escherichia coli) was 0.06 µg/mL (≈ 0.156 µM). For the same compound, the MIC90 (E. coli clinical strains; Escherichia coli) was 4 µg/mL (≈ 10.4 µM) and the Minimum (E. coli clinical strains; lowest MIC among E. coli clinical strains (201 strains; Example 15: 176), no unit in this line) was 0.03.
